PubChem BioAssay (NCI)
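48-hour exposure; five concentrations; linearly interpolated endpoints. At the GI50, growth is halved. TGI: concentration producing complete growth inhibition.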

How the values were obtained:
Assay in all cases: DTP human tumour cell line panel, 48 h
[1] = system: CCRF-CEM leukemia
[2] = system: HCC-2998 colon
[3] = system: HT29 colon
[4] = system: KM12 colon
[5] = system: MDA-MB-231 breast
[6] = system: OVCAR-4 ovarian
[7] = system: SK-MEL-5 melanoma
[8] = system: SR leukemia
[9] = system: T-47D breast
[10] = system: MCF7 breast

Structure (SMILES)	GI50 [1] [µM]	TGI [1] [µM]	GI50 [2] [µM]	TGI [2] [µM]	GI50 [3] [µM]	TGI [3] [µM]	GI50 [4] [µM]	TGI [4] [µM]	GI50 [5] [µM]	TGI [5] [µM]	GI50 [6] [µM]	TGI [6] [µM]	GI50 [7] [µM]	TGI [7] [µM]	GI50 [8] [µM]	TGI [8] [µM]	GI50 [9] [µM]	TGI [9] [µM]	GI50 [10] [µM]	TGI [10] [µM]
O=c1cc(-c2ccccc2)oc2ccc(OC/C(=N/O)c3ccccc3)cc12	1.51	> 50	11	> 50	2.02	> 50	1.95	> 50	2.63	> 50	29	> 50	1.82	11.7	1.73	> 50				
NCCCNc1nc2ccccc2c2c(=O)c3cc(F)cc(F)c3sc12			1.69	3.36			1.74	3.26	1.49	3.02	1.75	3.61	1.68	3.09			16.2	55.4		
N#Cc1c(NC(=O)NCc2ccccc2)sc2c1CCCC2	0.459	> 100	1.72	> 100	0.392	> 100	0.425	> 100	1.73	> 42.4	1.78	> 100	0.439	6.93	0.35	> 100			0.363	> 100
O=C(/C=C/c1ccco1)c1cc(F)c(Cl)cc1Cl	18.8	47.5			24.3	52.1	19.7	56.4	21.9	58	22	72.3	17	32.5	23	> 100	18.1	56.8	14.1	63
CCOC(=O)c1ccc2c(c1)Cc1cc([N+](=O)[O-])ccc1-2		> 100				86.4		> 100		> 100		56		44.2				> 100		71.2
Cc1ccc(S(=O)(=O)c2ccc(NC(=O)SCCC(=O)O)cc2)cc1		> 100		> 100		> 100		> 100				> 100				> 100				
C#CCNC(=O)N(CC#C)N=O		> 100		> 100		> 100		> 100				> 100		> 100						
CC(C)(C)OC(=O)N[C@H]1CC(O)c2ccccc2N(CC(=O)O)C1=O (stereo not given in full)		> 100		> 100		> 100		> 100				> 100		> 100		> 100				
N.N.NCCCCCN.O=C([O-])CCl.O=C([O-])CCl.O=C([O-])CCl.O=C([O-])CCl.[Pt+4].[Pt+4]	1.71	> 100	11.6	28	9.87	42.4	20.9	> 100			10.2	48.3	4.68	18.3	1.73	16.8				
COC1C(CO)OC(n2c3ccccc3c3c4c(c5c6ccccc6[nH]c5c32)C(=O)NC4=O)C(O)C1O (stereo not given)	< 0.01	2.42	0.127	1.5	0.23	> 37.7	0.0176	0.55	0.0595	0.343	0.342	17.7	0.0133	0.0608			< 0.0126	0.117	0.0336	2.07
C[n+]1c(/C=C/c2c[nH]c3ccccc23)ccc2ccccc21	5.59	45	10.5	23.8	5.06	27.5	4.61	22.3	10.5	23	7.07	37.1	6.15	19.6	5.84	30			2.16	34.1
CCCCCCCCOCC(O)COC(C)C (stereo not given)		52.8		58.3		> 100						> 100		> 100		40.2				
O=S(=O)([O-])c1ccc(N=Cc2ccccc2[O-])cc1.O=S(=O)([O-])c1ccc(N=Cc2ccccc2[O-])cc1.[O]=[U+2]=[O]	> 100	> 100			> 100	> 100					> 100	> 100								
CC(=O)Nc1ccc(/C=c2\sc3nnc(CCC(=O)Nc4ccccc4Cl)n3c2=O)cc1		42.9		> 10		> 100		46.4				43		68.2		43.2				
CC[C@@H]1[C@@H](C)O[C@@](O)([C@@H](C)[C@H](O)[C@H](C)[C@H]2OC(=O)/C=C/C=C/[C@H](C)[C@@H]([C@@H](C)[C@@H](O)[C@H](C)[C@@]3(O)C[C@@H](O[C@H]4C[C@@H](O)[C@H](O)C(C)O4)[C@H](CC)[C@@H](C)O3)OC(=O)/C=C/C=C/[C@@H]2C)C[C@H]1O[C@@H]1C[C@@H](O)[C@H](O)C(C)O1 (stereo not given in full)			0.097	0.262	0.109	0.389	0.125	0.413	0.0586	0.139	0.0741	0.192	0.0531	0.0992			0.0949	0.34	0.0843	0.287
COc1ccccc1NC(=O)C1=C(C)NC(C)=C(C(=O)Nc2ccccc2OC)C1C1=CC=COC1		48.4		50.2		62.7		49.6				> 100		41.9						
COc1ccc2c(c1)[n+]([O-])c(-c1ccc([N+](=O)[O-])cc1)c(N)[n+]2[O-]		> 100				> 100		> 100				> 100		> 100		> 100				
COc1ccc(OC(C)=O)c2c1CCC=CC2=O		17.1		32.9		33.7		12.6				36.1		28.9		40.3				
